Columns and labels:
MDA-MB-435 = experiment: panel of 60 human tumor cell lines, growth inhibition (Melanoma); conditions: MDA-MB-435
SF-268 = experiment: panel of 60 human tumor cell lines, growth inhibition (CNS Cancer); conditions: SF-268
T-47D = experiment: panel of 60 human tumor cell lines, growth inhibition (Breast Cancer); conditions: T-47D
COLO 205 = experiment: panel of 60 human tumor cell lines, growth inhibition (Colon Cancer); conditions: COLO 205
BT-549 = experiment: panel of 60 human tumor cell lines, growth inhibition (Breast Cancer); conditions: BT-549
HS 578T = experiment: as above; conditions: HS 578T
SW-620 = experiment: panel of 60 human tumor cell lines, growth inhibition (Colon Cancer); conditions: SW-620
NCI-H522 = experiment: panel of 60 human tumor cell lines, growth inhibition (Non-Small Cell Lung Cancer); conditions: NCI-H522
HCT-116 = experiment: panel of 60 human tumor cell lines, growth inhibition (Colon Cancer); conditions: HCT-116
OVCAR-5 = experiment: panel of 60 human tumor cell lines, growth inhibition (Ovarian Cancer); conditions: OVCAR-5
SF-539 = experiment: panel of 60 human tumor cell lines, growth inhibition (CNS Cancer); conditions: SF-539
K-562 = experiment: panel of 60 human tumor cell lines, growth inhibition (Leukemia); conditions: K-562
ACHN = experiment: panel of 60 human tumor cell lines, growth inhibition (Renal Cancer)
NCI/ADR-RES = experiment: panel of 60 human tumor cell lines, growth inhibition (Ovarian Cancer)
786-0 = experiment: panel of 60 human tumor cell lines, growth inhibition (Renal Cancer); conditions: 786-0
OVCAR-8 = experiment: panel of 60 human tumor cell lines, growth inhibition (Ovarian Cancer); conditions: OVCAR-8
UO-31 = experiment: panel of 60 human tumor cell lines, growth inhibition (Renal Cancer); conditions: UO-31
IGROV1 = experiment: panel of 60 human tumor cell lines, growth inhibition (Ovarian Cancer); conditions: IGROVI

SMILES: C=C1C(=O)O[C@H]2[C@H]1CC/C(COC(=O)CCC(=O)N1CCC(C)CC1)=C\CC[C@@]1(C)O[C@@H]21 [JVM 2-70]
- Percent Growth (MDA-MB-435; Log10 Concentration −4.0): −72%
- Percent Growth (MDA-MB-435; Log10 Concentration −5.0): 32%
- Percent Growth (MDA-MB-435; Log10 Concentration −6.0): 90%
- Percent Growth (MDA-MB-435; Log10 Concentration −7.0): 95%
- Percent Growth (MDA-MB-435; Log10 Concentration −8.0): 89%
- GI50 (MDA-MB-435; NCI five dose): 4.84 µM
- TGI (MDA-MB-435; NCI five dose): 2.03E−5
- Percent Growth (SF-268; Log10 Concentration −4.0): −72%
- Percent Growth (SF-268; Log10 Concentration −5.0): 67%
- Percent Growth (SF-268; Log10 Concentration −6.0): 93%
- Percent Growth (SF-268; Log10 Concentration −7.0): 101%
- Percent Growth (SF-268; Log10 Concentration −8.0): 100%
- GI50 (SF-268; NCI five dose): 13.2 µM
- TGI (SF-268; NCI five dose): 3.02E−5
- Percent Growth (T-47D; Log10 Concentration −4.0): −48%
- Percent Growth (T-47D; Log10 Concentration −5.0): 34%
- Percent Growth (T-47D; Log10 Concentration −6.0): 94%
- Percent Growth (T-47D; Log10 Concentration −7.0): 94%
- Percent Growth (T-47D; Log10 Concentration −8.0): 86%
- GI50 (T-47D; NCI five dose): 5.45 µM
- TGI (T-47D; NCI five dose): 2.61E−5
- Percent Growth (COLO 205; Log10 Concentration −4.0): −88%
- Percent Growth (COLO 205; Log10 Concentration −5.0): −11%
- Percent Growth (COLO 205; Log10 Concentration −6.0): 104%
- Percent Growth (COLO 205; Log10 Concentration −7.0): 107%
- Percent Growth (COLO 205; Log10 Concentration −8.0): 94%
- GI50 (COLO 205; NCI five dose): 2.94 µM
- TGI (COLO 205; NCI five dose): 8.03E−6
- Percent Growth (BT-549; Log10 Concentration −4.0): −96%
- Percent Growth (BT-549; Log10 Concentration −5.0): −10%
- Percent Growth (BT-549; Log10 Concentration −6.0): 71%
- Percent Growth (BT-549; Log10 Concentration −7.0): 86%
- Percent Growth (BT-549; Log10 Concentration −8.0): 81%
- GI50 (BT-549; NCI five dose): 1.82 µM
- TGI (BT-549; NCI five dose): 7.55E−6
- Percent Growth (HS 578T; Log10 Concentration −4.0): 6%
- Percent Growth (HS 578T; Log10 Concentration −5.0): 70%
- Percent Growth (HS 578T; Log10 Concentration −6.0): 86%
- Percent Growth (HS 578T; Log10 Concentration −7.0): 92%
- Percent Growth (HS 578T; Log10 Concentration −8.0): 92%
- GI50 (HS 578T; NCI five dose): 20.4 µM
- TGI (HS 578T; NCI five dose): >1.00E−4
- Percent Growth (SW-620; Log10 Concentration −4.0): −80%
- Percent Growth (SW-620; Log10 Concentration −5.0): 1%
- Percent Growth (SW-620; Log10 Concentration −6.0): 79%
- Percent Growth (SW-620; Log10 Concentration −7.0): 97%
- Percent Growth (SW-620; Log10 Concentration −8.0): 99%
- GI50 (SW-620; NCI five dose): 2.33 µM
- TGI (SW-620; NCI five dose): 1.02E−5
- Percent Growth (NCI-H522; Log10 Concentration −4.0): −71%
- Percent Growth (NCI-H522; Log10 Concentration −5.0): −87%
- Percent Growth (NCI-H522; Log10 Concentration −6.0): 80%
- Percent Growth (NCI-H522; Log10 Concentration −7.0): 96%
- Percent Growth (NCI-H522; Log10 Concentration −8.0): 93%
- GI50 (NCI-H522; NCI five dose): 1.5 µM
- TGI (NCI-H522; NCI five dose): 3.00E−6
- Percent Growth (HCT-116; Log10 Concentration −4.0): −93%
- Percent Growth (HCT-116; Log10 Concentration −5.0): −46%
- Percent Growth (HCT-116; Log10 Concentration −6.0): 79%
- Percent Growth (HCT-116; Log10 Concentration −7.0): 95%
- Percent Growth (HCT-116; Log10 Concentration −8.0): 91%
- GI50 (HCT-116; NCI five dose): 1.69 µM
- TGI (HCT-116; NCI five dose): 4.25E−6
- Percent Growth (OVCAR-5; Log10 Concentration −4.0): −89%
- Percent Growth (OVCAR-5; Log10 Concentration −5.0): 41%
- Percent Growth (OVCAR-5; Log10 Concentration −6.0): 87%
- Percent Growth (OVCAR-5; Log10 Concentration −7.0): 87%
- Percent Growth (OVCAR-5; Log10 Concentration −8.0): 86%
- GI50 (OVCAR-5; NCI five dose): 6.36 µM
- TGI (OVCAR-5; NCI five dose): 2.06E−5
- Percent Growth (SF-539; Log10 Concentration −4.0): −90%
- Percent Growth (SF-539; Log10 Concentration −5.0): −20%
- Percent Growth (SF-539; Log10 Concentration −6.0): 92%
- Percent Growth (SF-539; Log10 Concentration −7.0): 97%
- Percent Growth (SF-539; Log10 Concentration −8.0): 93%
- GI50 (SF-539; NCI five dose): 2.35 µM
- TGI (SF-539; NCI five dose): 6.58E−6
- CC50 (SF-539; read-out: LC50, NCI five dose): 26.5 µM
- Percent Growth (K-562; Log10 Concentration −4.0): −38%
- Percent Growth (K-562; Log10 Concentration −5.0): 7%
- Percent Growth (K-562; Log10 Concentration −6.0): 90%
- Percent Growth (K-562; Log10 Concentration −7.0): 109%
- Percent Growth (K-562; Log10 Concentration −8.0): 109%
- GI50 (K-562; NCI five dose): 3.06 µM
- TGI (K-562; NCI five dose): 1.45E−5
- Percent Growth (ACHN; Log10 Concentration −4.0): −79%
- Percent Growth (ACHN; Log10 Concentration −5.0): 2%
- Percent Growth (ACHN; Log10 Concentration −6.0): 85%
- Percent Growth (ACHN; Log10 Concentration −7.0): 102%
- Percent Growth (ACHN; Log10 Concentration −8.0): 98%
- GI50 (ACHN; NCI five dose): 2.64 µM
- TGI (ACHN; NCI five dose): 1.05E−5
- Percent Growth (NCI/ADR-RES; Log10 Concentration −4.0): −52%
- Percent Growth (NCI/ADR-RES; Log10 Concentration −5.0): 64%
- Percent Growth (NCI/ADR-RES; Log10 Concentration −6.0): 99%
- Percent Growth (NCI/ADR-RES; Log10 Concentration −7.0): 104%
- Percent Growth (NCI/ADR-RES; Log10 Concentration −8.0): 95%
- GI50 (NCI/ADR-RES; NCI five dose): 13.1 µM
- TGI (NCI/ADR-RES; NCI five dose): 3.55E−5
- Percent Growth (786-0; Log10 Concentration −4.0): −78%
- Percent Growth (786-0; Log10 Concentration −5.0): 39%
- Percent Growth (786-0; Log10 Concentration −6.0): 100%
- Percent Growth (786-0; Log10 Concentration −7.0): 98%
- Percent Growth (786-0; Log10 Concentration −8.0): 90%
- GI50 (786-0; NCI five dose): 6.64 µM
- TGI (786-0; NCI five dose): 2.17E−5
- Percent Growth (OVCAR-8; Log10 Concentration −4.0): −88%
- Percent Growth (OVCAR-8; Log10 Concentration −5.0): 15%
- Percent Growth (OVCAR-8; Log10 Concentration −6.0): 89%
- Percent Growth (OVCAR-8; Log10 Concentration −7.0): 95%
- Percent Growth (OVCAR-8; Log10 Concentration −8.0): 94%
- GI50 (OVCAR-8; NCI five dose): 3.37 µM
- TGI (OVCAR-8; NCI five dose): 1.39E−5
- Percent Growth (UO-31; Log10 Concentration −4.0): −84%
- Percent Growth (UO-31; Log10 Concentration −5.0): 19%
- Percent Growth (UO-31; Log10 Concentration −6.0): 88%
- Percent Growth (UO-31; Log10 Concentration −7.0): 94%
- Percent Growth (UO-31; Log10 Concentration −8.0): 96%
- GI50 (UO-31; NCI five dose): 3.56 µM
- TGI (UO-31; NCI five dose): 1.53E−5
- Percent Growth (IGROV1; Log10 Concentration −4.0): −52%
- Percent Growth (IGROV1; Log10 Concentration −5.0): 19%
- Percent Growth (IGROV1; Log10 Concentration −6.0): 104%
- Percent Growth (IGROV1; Log10 Concentration −7.0): 118%
- Percent Growth (IGROV1; Log10 Concentration −8.0): 109%
- GI50 (IGROV1; NCI five dose): 4.32 µM
- TGI (IGROV1; NCI five dose): 1.85E−5
